Measured values taken from patent publication US9656017B2, “Infusion delivery devices and methods” (priority 2014, dated 2017).
No end group written: not given here.

Experiments:
[1] = T1D patients, same immunometric assay (FIG. 1-D); cited from earlier work
[2] = 24-hour plasma profiles of endogenous insulin and amylin in healthy adults, basal/bolus AUC analysis; type: in vivo, human; conditions: for In Vivo AUC pM × 24 hr / AUC: endogenous; for In Vivo AUC pM × 24 hr: molar; for AUC: human, in vivo, In Vivo AUC μg/L × 24 hr, corrected for molecular weight
Excerpt: This difference in bolus/basal ratios was quantified by estimating the AUCs of the basal and bolus components, which would reflect the 24-hour hormone exposures attributable to these components.
Comparing AUCs results in the discovery that there is a striking difference between hormones with respect to the importance of bolus exposure compared to basal exposure, as summarized in Table 1. […] See the example in Table 1.
Either this is background amylin expression which been reported in non-beta-cell tissues, or it is nonspecific background noise in the amylin assay. […] The same adjustment should also be made for any background insulin plasma levels.
The following calculations are presented as an example of how appropriate amylin agonist doses can be determined. This insulin-dependent dosing can be achieved by calculating two separate components of pramlintide dosing: (1) the weight ratio of the daily basal component of amylin-to-insulin; and (2) the weight ratio of the daily bolus component of amylin-to-insulin.

[3] = Post-injection plasma pramlintide levels for three subcutaneous doses compared with healthy plasma amylin profile; type: in vivo, human
Excerpt: How well do the recommended mealtime injections of pramlintide mimic the healthy plasma amylin profile? […] In the case of three meals per day, these doses would result in three large boluses of pramlintide that spike well above the levels of plasma amylin measured in healthy adults. FIG. 3 superimposes plasma levels of the three subcutaneous doses of pramlintide (FIG. 2) on the plasma amylin profile in healthy adults (FIG. 1).
From an efficacy standpoint, the dose limiting effect of nausea caused by pramlintide plasma spikes reduces daily drug exposure below healthy plasma amylin exposure levels. Daily exposure to endogenous hormone and infused drug can be measured by calculating the areas under the curves (AUCs) in FIG. 3.

test animals = conditions: treated test animals; e.g. marked hyperlactemia followed by hyperglycemia; cited from earlier work
[4] = ex vivo gram AUC (bioavailability adjusted)
[5] = in vivo gram AUC (molecular weight adjusted)
[6] = plasma, healthy adults, based upon AUCs

## CC[C@H](C)[C@H](NC(=O)[C@H](C)NC(=O)CNC(=O)[C@H](Cc1ccccc1)NC(=O)[C@H](CC(N)=O)NC(=O)[C@H](CC(N)=O)NC(=O)[C@H](CO)NC(=O)[C@H](CO)NC(=O)[C@H](Cc1c[nH]cn1)NC(=O)[C@@H](NC(=O)[C@H](CC(C)C)NC(=O)[C@H](Cc1ccccc1)NC(=O)[C@H](CC(N)=O)NC(=O)[C@H](C)NC(=O)[C@H](CC(C)C)NC(=O)[C@H](CCCNC(=N)N)NC(=O)[C@H](CCC(N)=O)NC(=O)[C@@H](NC(=O)[C@H](C)NC(=O)[C@@H]1CSSC[C@H](NC(=O)[C@@H](N)CCCCN)C(=O)N[C@@H](CC(N)=O)C(=O)N[C@@H]([C@@H](C)O)C(=O)N[C@@H](C)C(=O)N[C@@H]([C@@H](C)O)C(=O)N1)[C@@H](C)O)C(C)C)C(=O)N[C@@H](CC(C)C)C(=O)N[C@@H](CO)C(=O)N[C@@H](CO)C(=O)N[C@H](C(=O)N[C@@H](CC(N)=O)C(=O)N[C@H](C(=O)NCC(=O)N[C@@H](CO)C(=O)N[C@@H](CC(N)=O)C(=O)N[C@H](C(=O)N[C@@H](Cc1ccc(O)cc1)C(N)=O)[C@@H](C)O)C(C)C)[C@@H](C)O [Amylin]
[1]
  plasma amylin, average: 1.6 pM
[2]; basal component
  In Vivo AUC pM × 24 hr: 222.79 pM × 24 hr
  AUC: 0.88 ng·h/mL
[2]; bolus component
  In Vivo AUC pM × 24 hr: 135.19 pM × 24 hr
  AUC: 0.534 ng·h/mL
[2]; [4]
  Basal Amylin/Insulin Ratio: 14.8%
  Bolus Amylin/Insulin Ratio: 4.8%
[2]; healthy adults, FIG. 8
  plasma levels as % of insulin levels: less than 5%
[2]; [5]
  Basal Amylin/Insulin Ratio: 7.4%
  Bolus Amylin/Insulin Ratio: 2.4%
[2]; in vivo molar AUC
  Basal Amylin/Insulin Ratio: 10.9%
  Bolus Amylin/Insulin Ratio: 3.5%
[2]; [6]
  Basal as % Total: 62%
  Bolus/Basal Ratio: 0.6

## CC[C@H](C)[C@H](NC(=O)[C@@H]1CCCN1C(=O)CNC(=O)[C@H](Cc1ccccc1)NC(=O)[C@H](CC(N)=O)NC(=O)[C@H](CC(N)=O)NC(=O)[C@H](CO)NC(=O)[C@H](CO)NC(=O)[C@H](Cc1c[nH]cn1)NC(=O)[C@@H](NC(=O)[C@H](CC(C)C)NC(=O)[C@H](Cc1ccccc1)NC(=O)[C@H](CC(N)=O)NC(=O)[C@H](C)NC(=O)[C@H](CC(C)C)NC(=O)[C@H](CCCNC(=N)N)NC(=O)[C@H](CCC(N)=O)NC(=O)[C@@H](NC(=O)[C@H](C)NC(=O)[C@@H]1CSSC[C@H](NC(=O)[C@@H](N)CCCCN)C(=O)N[C@@H](CC(N)=O)C(=O)N[C@@H]([C@@H](C)O)C(=O)N[C@@H](C)C(=O)N[C@@H]([C@@H](C)O)C(=O)N1)[C@@H](C)O)C(C)C)C(=O)N[C@@H](CC(C)C)C(=O)N1CCC[C@H]1C(=O)N1CCC[C@H]1C(=O)N[C@H](C(=O)N[C@@H](CC(N)=O)C(=O)N[C@H](C(=O)NCC(=O)N[C@@H](CO)C(=O)N[C@@H](CC(N)=O)C(=O)N[C@H](C(=O)N[C@@H](Cc1ccc(O)cc1)C(N)=O)[C@@H](C)O)C(C)C)[C@@H](C)O [pramlintide, 25,28,29Pro-h-amylin]
[3]; 90 μg dose, three meals per day (FIG. 4)
  24-hour exposure (relative AUC, endogenous amylin = 100%): achieves the healthy, 24-hour physiological exposure
[3]; T1D patients, mealtime SC doses three times daily (FIG. 3)
  plasma levels relative to plasma amylin in healthy adults: supra-physiological (or pharmacological) plasma levels
Test animals
  amylin activity in vivo: show amylin activity in vivo

## Arg18 Pro25 Pro28-h-amylin
Test animals
  amylin activity in vivo: show amylin activity in vivo

## Arg18 Pro25 Pro 28-des-Lys1-h-amylin
Test animals
  amylin activity in vivo: show amylin activity in vivo

## Pro25 Val26 Pro 28 Pro29-h-amylin
Test animals
  amylin activity in vivo: show amylin activity in vivo

## Pro28-h-amylin (KCNTATCATQRLANFLVHSSNNFGAILPSTNVGSNTY; ends and bridges not checked; cysteine pairing not given here; UniProt P10997 34-70, looked up, variant S28P) [amylin analogue]
Test animals
  amylin activity in vivo: show amylin activity in vivo

## des-Lys1-h-amylin
Test animals
  amylin activity in vivo: show amylin activity in vivo
